Measurements from patent publication US11091423B2, “Reagents and methods for esterification” (Wisconsin Alumni Research Foundation, priority 2013, dated 2021).

Biological target: T1, ribonuclease A (RNase A) (Bos taurus, UniProt P61823)
T1 sequence (P61823 27-150): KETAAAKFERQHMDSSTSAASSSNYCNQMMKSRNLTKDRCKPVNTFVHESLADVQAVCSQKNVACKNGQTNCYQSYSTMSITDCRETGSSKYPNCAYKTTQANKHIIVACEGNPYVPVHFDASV
Test: RNase A labeling (esterification of carboxyl groups), extent by MALDI, labelled residues by trypsin digestion and mass spectrometry
Assay type: biochemical
Conditions: for RNase A residues labelled (chemoselectivity): trypsin digestion coupled with mass spectrometry; for extent of labeling of RNase A (average number of the eleven carboxylates esterified): 10 equivalents of diazo compound
Method: To address biocompatibility of diazo-compounds for esterification more directly, the relative esterification efficiency of these diazo compounds was compared with the eleven carboxyl groups present in ribonuclease A (RNase A).[24]
Only after the addition of 200 equivalents was any esterification with diazo-acetamide 1 observed which correlates with its lack of selectivity under aqueous conditions (Scheme 2).
Using trypsin digestion coupled with mass spectrometry, it was determined which residues were labelled and the results fit well with the observed chemoselectivity of each diazo compound. […] This provides further evidence that properly tuned diazo compounds can not only attain high levels of labelling, but can also selectively label specific residues.
Ribonuclease A (0.001 g, 0.073 μmol) was dissolved in MES buffer (10 mM, pH=5.5, 0.1 mL) and diazobenzylacetamide (0.0026 g, 14.6 μmol) was dissolved in acetonitrile (0.1 mL). The two solutions were combined and the reaction was allowed to stir 4 hours at 37° C.
Ribonuclease A (0.001 g, 0.073 μmol) was dissolved in MES buffer (10 mM, pH=5.5, 0.1 mL) and a stock solution of diazofluorene in acetonitrile was made (Stock solution: 0.001 g, 7.30 μmol, 1 mL CH3CN). The stock solution of diazo compound (0.1 mL, 0.730 μmol) was added to the ribonuclease solution and the reaction was allowed to stir 4 hours at 37° C. Any remaining diazo compound was then quenched by adding 0.1 M acetic acid (0.1 mL) and the reaction was concentrated and the extent of labeling was determined by MALDI spectroscopy to be ˜3 labels per RNase A.

[1] = 4 hours at 37° C., MES buffer pH 5.5/acetonitrile

SMILES | RNase A residues labelled (chemoselectivity) (10 equiv.) | extent of labeling of RNase A (average number of the eleven carboxylates esterified) [1] | extent of labeling of RNase A (average number of the eleven carboxylates esterified) (4 hours at 37° C., MES buffer pH 5.5/acetonitrile, listed as diazobenzylacetamide) | RNase A residues labelled (chemoselectivity) (200 equiv.) | extent of labeling of RNase A (200 equivalents of diazo compound, 4 hours at 37° C., MES buffer pH 5.5/acetonitrile) [label per RNase A]
[N-]=[N+]=C1c2ccccc2-c2ccccc21 [compound 2, Diazofluorene] | almost exclusively labelling Asp14, Glu49, Glu111, and Asp121 | ~3 labels per RNase A |  |  | 
[N-]=[N+]=C(Cc1ccccc1)C(N)=O [compound 1, Diazobenzylacetamide] |  | incapable of labelling | no labeling was observed | comparably labelling residues Glu9, Asp14, Glu49, Glu111, and the C-terminal Val124 | < 1
